According to patent publication US6271238A, “Acetamide derivatives and protease inhibitors” (Nippon Kayaku Kabushiki Kaisha, priority 1996, dated 2001):

What was measured:
guinea pig eosinophils = test: Inhibitory action on eosinophils (release of active oxygen from guinea pig eosinophils); type: cell-based; conditions: Cavia porcellus, Eosinophil, 5 min, PAF, luminol chemiluminescence for 5 minutes
Experimental: Inhibitory activity on eosinophil activation
(A) Preparation of eosinophils
Polymyxin B (produced by Sigma) was administered intraperitoneally into a guinea pig (Hartley, male, 6-week-old) at a dosage of 1 mg once every week for 6 to 8 weeks. After the final administration of polymyxin B. 50 ml of PBS (phosphate-buffered saline) was injected into the intraperitoneal cavity of the guinea pig, and cells were recovered. The cells were centrifuged at 800 rpm for 5 minutes and the abdomen infiltration cells were collected as precipitates and then suspended in 1 ml of 40% Ficoll (40% Ficoll (produced by Pharmacia), HBSS (Hanks' balanced salt solution) and layered on a Ficoll discontinuous density gradient (40 to 90%). It was centrifuged at 1500 rpm for 40 minutes, and the eosinophil fraction was recovered. In this operation, eosinophils of 99% or more purity were usually obtained. Further, the cells were washed twice with RPMI 1640 medium (10% BSA (bovine serum albumin available from Boehringer Mannheim), suspended again at a predetermined density, and used in the objective experiment.
(B) Inhibitory action on eosinophils (inhibitory action on release of active oxygen from guinea pig eosinophils)
The eosinophils (99% or more purity) obtained by the Ficoll density gradient method in (A) above were suspended at a cell density of 4×10^5 in a buffer solution (0.136 M sodium chloride, 2.7 mM potassium chloride, 1.8 mM calcium chloride, 1.0 mM magnesium chloride, 11.9 mM sodium hydrogen carbonate, 5.5 mM D-glucose, 5.0 mM HEPES, 0.36 mM sodium dihydrogen phosphate, pH 7.2). Each drug (2 μl) and 180 μl of the cell suspension were put to a 96-well multi-well plate (for chemiluminescence measurement, white type) previously kept at 37° C., and incubated at 37° C. for 10 minutes. After incubation, 20 μl of PAF (platelet-activating factor) (5×10^-6 M) and 20 μl of a luminol solution were added to it and immediately examined for its chemiluminescence (Luminoskan Labosystem). The chemiluminescence for 5 minutes were measured to calculate 50% inhibitory concentration (IC50: μM).

rat mast cells = test: Inhibitory action on degranulation of mast cells (histamine release from rat mast cells); type: cell-based; conditions: Mast cell; rat peritoneal mast cells, anti-IgE antibody, 37° C.
Experimental: Inhibitory action on degranulation of mast cells
(A) Preparation of mast cells
30 ml of mast cell buffer solution (150 mM sodium chloride, 3.7 mM potassium chloride, 3.0 mM disodium hydrogen phosphate, 3.5 mM sodium dihydrogen phosphate, 5.6 mM dextrose, pH 7.0) was injected into the abdomen of a rat(SD, male, 8 to 10 week-old), and intra peritoneal cavity cells were recovered and centrifuged at 800 rpm for 5 minutes, and then the abdomen infiltration cells were recovered as precipitates. The precipitated cells were further washed twice with the mast cell buffer solution, suspended again at a predetermined density, and used in the objective experiment.
(B) Inhibitory action on degranulation of mast cells (inhibitory action on histamine release from rat mast cells)
The mast cells obtained in the procedure in (A) above were suspended at 1×10^5 cells in the mast cell buffer solution and kept at 37° C. 2 μl of each drug and 200 μl of the cell suspension were added into a 1.5 ml test tube previously kept at 37° C. and incubated at 37° C. for 10 minutes. After incubation, 2 μl anti-IgE antibody (BETHYL Lab. Inc.) was added to it and further incubated at 37° C. for 15 minutes. After the end of the reaction, the reaction mixture was immediately cooled on ice and centrifuged at 4° C. at 4000 rpm for 5 minutes, and then the supernatant was stored. Histamine in the supernatant was modified with ortho-phthalaldehyde and measured by high performance liquid chromatography to determine 50% inhibitory concentration (IC50: μM).

rat chymase = target: T1, rat chymase (Rattus norvegicus, UniProt P09650); test: Inhibitory activity on rat chymase (synthetic substrate); type: biochemical; conditions: substrate succinyl leucyl leucyl valyl tyrosyl methylcoumarylamide; pH 8.0, 37° C., 15 min; read-out: Rat Chymase (IC50: nM), 50% inhibitory concentration
T1 construct: 50 g rat tongue was finely divided by scissors and a scalpel; from tissue; host or cells: rat tongue
T1 sequence (P09650 21-260): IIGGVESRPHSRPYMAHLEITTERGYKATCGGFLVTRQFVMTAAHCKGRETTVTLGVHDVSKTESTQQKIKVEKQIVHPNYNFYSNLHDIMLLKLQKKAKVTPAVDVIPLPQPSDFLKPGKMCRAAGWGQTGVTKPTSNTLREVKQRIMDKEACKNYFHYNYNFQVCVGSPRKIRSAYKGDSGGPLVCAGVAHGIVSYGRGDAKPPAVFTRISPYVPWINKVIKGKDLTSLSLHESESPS
Experimental: In the present invention, chymase was purified by the methods described in these literatures, and the present compounds were examined for inhibitory activity on chymase, inhibitory action on activation of mast cells and eosinophils, and pharmacological action in animals. Hereinafter, specific methods are described. […] 50 g rat tongue was finely divided by scissors and a scalpel, suspended in 0.1 M phosphate buffer (pH 8.0), and disrupted by a Polytron homogenizer for 5 minutes to prepare a crude chymase enzyme solution. […] The supernatant was applied to an octyl Sepharose 4B column (40×100 mm) previously equilibrated with 0.1 M phosphate buffer (pH 8.0) containing 2 M sodium chloride and 5% ammonium sulfate, and the protein was eluted with a linear concentration gradient of from 2 M to 0 M sodium chloride. […] (D) Measurement of inhibitory activity on chymase (a) Measurement using the synthetic substrate The synthetic chymase substrate was used for measurement of the inhibitory activity on the rat chymase as a subtrate, and the fluorescence of formed aminomethylcoumarin after reaction was measured by a spectrophotometer. […] The test was conducted several times. Chymase was prepared for each test in the manner described above. The compounds examined were compounds prepared in the above-described examples. […] Succinyl leucyl leucyl valyl tyrosyl methylcoumarylamide (for rat […] angiotensin I (for human and dog chymase)

Compound | IC50 (guinea pig eosinophils) | IC50 (rat mast cells) | IC50 (rat chymase)
Nc1cnc(-c2ccccc2)n(CC(=O)NC(Cc2ccccc2)C(=O)C(=O)CCCN2CCOCC2)c1=O (stereo not shown) [Compound 71, 2-(5-Amino-6-oxo-2-phenyl-1,6-dihydropyrimidine-1-yl)-N-{2,3-dioxo-6-(4-morpholine-4-yl)-1-phenylmethyl}hexylacetamide] | 2.6 µM | 13 µM | –
CN1CCN(C(=O)CCCC(=O)C(=O)C(Cc2cccc(F)c2)NC(=O)Cn2c(-c3ccccc3)ncc(N)c2=O)CC1 (stereo not shown) [Compound 69] | 2.5 µM | – | 54 nM
